Experimental data taken from patent US20230000842A1, “METHODS OF TREATING CARTILAGE DISORDERS THROUGH INHIBITION OF CLK AND DYRK” (SAMUMED, LLC, priority 2019, published 2023).

How the values were obtained:
[1] = target: CLK2 kinase (Homo sapiens, UniProt P49760); assay: CLK2 kinase activity assay (Z-lyte FRET); format: biochemical; conditions: Z-lyte Ser/Thr 6 peptide, 60 μM ATP, 1 h at room temperature;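 note: FRET read-out as coumarin to fluorescein emission ratio, unphosphorylated peptide as 0% and phosphorylated peptide as 100% controls, duplicate reactions, non-linear regression fit of dose-response curves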
[2] = system: Wnt pathway activity (SW480 colon carcinoma cells stably expressing the Sp5-Luc reporter); assay: Wnt pathway activity screening assay (Sp5-Luc reporter gene assay); conditions: Homo sapiens, SW480, Table 4; SW480 cells stably expressing Sp5-Luc reporter, 10-point dose-response from 10 μM, 36 to 48 hours
[3] = system: primary human mesenchymal stem cells (hMSCs); assay: Chondrogenesis screening using primary human mesenchymal stem cells; format: cell-based; conditions: Homo sapiens, Mesenchymal stem cells, hMSC chondrogenesis; for Emax: maximum activity relative to TGF-β3 (10 ng/mL) positive control, read-out: Max. Activity as % TGF-β3 activity; for EC50: concentration required to induce 50% levels of chondrogenesis with TGF-β3 as positive control, read-out: Conc (nM) of 50% TGF-β3 activity
Description: Representative compounds were screened using primary human mesenchymal stem cells (hMSCs) to determine their ability to induce chondrogenesis (process by which cartilage is developed).
Human Mesenchymal Stem Cell Culture: Primary human mesenchymal stem cells (hMSCs) were purchased from Lonza (Walkersville, Md.) and expanded in Mesenchymal Stem Cell Growth Media (Lonza). Cells between passage 3 and 6 were used for the experiments.
Area of nodules in each well was normalized to the average of 3 DMSO treated wells on the same plate using Excel (Microsoft Inc.). The normalized averages (fold change over DMSO) of 2 or 3 replicate wells for each compound concentration were calculated. Due to solubility limitations of some of the compounds, curve fitting was incomplete leading to inaccurate EC50 determinations.
Using TGF-β3 as a positive control, the concentration of representative compounds required to induce 50% levels of chondrogenesis is reported. In addition, the maximum activity of each compound and the respective dose that each compound reached maximum chondrogenesis activity is reported.

[4] = target: CLK3 kinase (Homo sapiens, UniProt P49761); assay: CLK3 kinase activity assay (Z-lyte FRET); format: biochemical; conditions: Z-lyte Ser/Thr 18 peptide, 156 μM ATP, 1 h at room temperature;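 note: kinase activity read as coumarin/fluorescein emission ratio by FRET, unphosphorylated peptide as 0% and phosphorylated peptide as 100% control, values from non-linear regression of dose-response curves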
CLK3 kinase, sequence (P49761 whole entry): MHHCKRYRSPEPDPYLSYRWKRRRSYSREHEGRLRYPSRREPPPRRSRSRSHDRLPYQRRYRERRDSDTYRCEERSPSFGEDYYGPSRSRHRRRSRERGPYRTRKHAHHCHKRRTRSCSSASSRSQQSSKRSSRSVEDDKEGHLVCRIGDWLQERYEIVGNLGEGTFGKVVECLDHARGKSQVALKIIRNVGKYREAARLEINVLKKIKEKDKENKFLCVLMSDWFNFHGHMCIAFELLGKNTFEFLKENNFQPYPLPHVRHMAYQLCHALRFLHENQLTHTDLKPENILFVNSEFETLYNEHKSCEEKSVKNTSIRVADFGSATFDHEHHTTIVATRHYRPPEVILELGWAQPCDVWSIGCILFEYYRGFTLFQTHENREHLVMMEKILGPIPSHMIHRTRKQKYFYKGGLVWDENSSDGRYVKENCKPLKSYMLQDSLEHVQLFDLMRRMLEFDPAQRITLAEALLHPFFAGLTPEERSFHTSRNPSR

CLK2 kinase, sequence (P49760 whole entry): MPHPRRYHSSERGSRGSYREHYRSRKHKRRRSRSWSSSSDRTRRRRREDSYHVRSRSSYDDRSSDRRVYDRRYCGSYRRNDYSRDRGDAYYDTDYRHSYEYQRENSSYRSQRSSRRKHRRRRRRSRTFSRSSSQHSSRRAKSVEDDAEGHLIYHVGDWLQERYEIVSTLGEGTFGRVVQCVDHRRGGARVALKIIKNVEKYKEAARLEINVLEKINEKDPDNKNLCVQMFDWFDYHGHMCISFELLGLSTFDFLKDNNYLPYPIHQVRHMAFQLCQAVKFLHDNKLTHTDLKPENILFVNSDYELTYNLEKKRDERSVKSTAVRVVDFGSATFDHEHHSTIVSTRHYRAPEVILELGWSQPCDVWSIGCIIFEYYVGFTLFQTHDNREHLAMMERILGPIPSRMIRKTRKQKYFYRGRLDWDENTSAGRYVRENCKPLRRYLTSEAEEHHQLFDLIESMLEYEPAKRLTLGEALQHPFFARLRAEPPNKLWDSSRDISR

| SMILES | EC50 [1] [nM] | EC50 [2] [nM] | EC50 [4] [nM] | EC50 [3] [nM] | Emax [3] [%] |
| --- | --- | --- | --- | --- | --- |
| O=C(Nc1ccc(OCCN2CCCC2)nc1)c1n[nH]cc1C#Cc1cccnc1 [compound 28] | 46 | 409 | – | – | 68.8 |
| COc1cncc(C#Cc2c[nH]nc2C(=O)Nc2ccc(N3CCNCC3)nc2)c1 [compound 29] | 25 | > 10000 | – | – | 74.7 |
| Cc1n[nH]c2cc(F)c(-c3cncc(CN4CCCCC4)n3)cc12 [compound 40] | 45 | 2440 | 2380 | – | – |
| Cc1n[nH]c2ccc(-c3cncc(NN4CCNCC4)n3)cc12 [compound 41] | 1 | 256 | 1420 | – | – |
| Cc1n[nH]c2ccc(-c3cncc(NC4CCNC[C@@H]4F)n3)cc12 (stereo partly drawn) [compound 42] | – | 84.3 | – | – | 25.6 |
| Cc1n[nH]c2ccc(-c3cncc(OC4CCNC[C@@H]4F)n3)cc12 (stereo partly drawn) [compound 44] | – | 627 | – | 100 | 44.9 |
| Cc1n[nH]c2ccc(-c3cncc(OC4CCNC[C@H]4F)n3)cc12 (stereo partly drawn) [compound 45] | – | 834 | – | 30 | 54.2 |
| Cc1n[nH]c2ccc(-c3cncc(OC4CCNCC4(F)F)n3)cc12 (stereo not drawn) [compound 47] | – | 227 | – | 300 | 82.1 |
| CN(C)C(=O)Nc1cncc(-c2ccc3[nH]nc(C(=O)Nc4cccnc4)c3c2)c1 [compound 54] | 1 | 176 | 20 | – | – |
| CN1CCN(c2ccc(NC(=O)c3n[nH]c4ccc(-c5cncc(NC(=O)C6CC6)c5)cc34)cn2)CC1 [compound 55] | 1 | 80 | 13 | – | – |
| O=C(Nc1cccnc1)c1n[nH]c2ccc(-c3cncc(NC(=O)N4CCOCC4)c3)cc12 [compound 56] | 4 | 1250 | 47 | – | – |
| c1cc(-c2cncc3[nH]c(-c4n[nH]c5ccc(-c6cncc(CNCC7CCCC7)c6)cc45)nc23)cs1 [compound 250] | 4 | 58 | – | 100 | 167 |
| Nc1cncc(-c2cc3c(-c4cc5c(-c6ccncc6)cncc5[nH]4)n[nH]c3cn2)c1 [compound 381] | 3 | > 10000 | – | 10 | 52 |
| CCCC(=O)Nc1cncc(-c2cnc3[nH]nc(-c4cc5c(-c6ccncc6)ccnc5[nH]4)c3c2)c1 [compound 384] | – | 999 | 100 | 30 | 50.3 |
| O=C(CC1CCNCC1)Nc1cncc(-c2cnc3[nH]nc(-c4cc5c(-c6ccncc6)ccnc5[nH]4)c3c2)c1 [compound 393] | 6 | > 10000 | – | – | 26.7 |
| CN(C)c1cncc(-c2cnc3[nH]nc(-c4cc5c(-c6ccncc6)cncc5[nH]4)c3c2)c1 [compound 397] | 3 | > 10000 | – | – | 191 |
| O=C(Nc1cncc(-c2cnc3[nH]nc(-c4cc5cccnc5[nH]4)c3c2)c1)c1ccccc1 [compound 436] | 8 | > 10000 | – | – | 21.8 |
| Cn1cc(-c2cnc3[nH]nc(-c4cc5cccnc5[nH]4)c3c2)cn1 [compound 454] | 3 | > 10000 | – | 300 | 51.7 |
| CN1CCN(c2cccc3[nH]c(-c4n[nH]c5ncc(-c6cncc(CN7CCCCC7)c6)cc45)cc23)CC1 [compound 494] | 12 | – | 973 | 300 | – |
| CN1CCN(c2ccnc3[nH]c(-c4n[nH]c5ccc(-c6cn[nH]c6)nc45)cc23)CC1 [compound 498] | 3 | > 10000 | – | 300 | 60.1 |
| CN1CCN(c2cc(C(=O)Nc3cc4cc(-c5cnn(C)c5)ccc4cn3)ccn2)CC1 [compound 545] | – | – | – | – | 27.1 |
| CNC(=O)c1ccc(C(=O)Nc2cc3cc(-c4cn(C)nn4)ccc3cn2)cn1 [compound 577] | 3 | – | 56 | – | – |
| Cn1cncc1-c1ccc2cnc(NC(=O)c3ccnc(N4CC(N)C4)c3)cc2c1 [compound 581] | 2 | – | 11 | – | – |
| CN1CC2CCC(C1)N2C(=O)Nc1cc2cc(-c3cnn(C)c3)ccc2cn1 [compound 638] | 1130 | > 10000 | – | – | – |
| O=C(Nc1cc2cc(-c3cnco3)cnc2cn1)[C@H]1CC[C@H](CO)CC1 [compound 640] | 7430 | > 10000 | – | – | – |

More lines, main results first:

| EC50 [1] [nM] | EC50 [2] [nM] | EC50 [4] [nM] | EC50 [3] [nM] | SMILES | Emax [3] [%] |
| --- | --- | --- | --- | --- | --- |
| 3 | 4640 | 148 | – | Fc1cccc(-c2cncc3[nH]c(-c4n[nH]cc4C#Cc4cncc(OC5CCNCC5)c4)nc23)c1 [compound 33] | – |
| 2 | – | 65 | 20.6 | COc1cncc(-c2ccc3[nH]nc(-c4nc5c(-c6cccc(F)c6)cncc5[nH]4)c3n2)c1 [compound 149] | 55.5 |
| 3 | – | 89 | – | COc1cncc(-c2ccc3[nH]nc(-c4nc5c(-c6cccc(F)c6)ccnc5[nH]4)c3n2)c1 [compound 150] | 47 |
| 3 | > 10000 | – | 20.6 | Fc1cccc(-c2cncc3[nH]c(-c4n[nH]c5ccc(-c6cn[nH]c6)nc45)nc23)c1 [compound 154] | 51.8 |
| – | 32 | 67 | 300 | CN(C)Cc1cncc(-c2cnc3[nH]nc(-c4nc5c(-c6ccsc6)cccc5[nH]4)c3c2)c1 [compound 251] | 105 |
| 19 | 3000 | – | 900 | CN(C)CCOc1cncc(-c2cc3c(-c4cc5c(-c6ccc(F)cc6)nccc5[nH]4)n[nH]c3cn2)c1 [compound 318] | 113 |
| 4 | > 10000 | – | – | Nc1cncc(-c2cc3c(-c4cc5c(-c6ccccc6F)ccnc5[nH]4)n[nH]c3cn2)c1 [compound 325] | 32.4 |
| 20 | > 10000 | – | 10 | CC(C)Nc1cncc(-c2cnc3[nH]nc(-c4cc5c(-c6ccccc6F)ccnc5[nH]4)c3c2)c1 [compound 333] | 81.6 |
| 11 | > 10000 | – | 300 | Cc1ccncc1-c1ccc2[nH]nc(-c3cc4c(-c5ccncc5)ccnc4[nH]3)c2n1 [compound 376] | 56.5 |
| 5 | > 10000 | – | – | Nc1cncc(-c2cnc3[nH]nc(-c4cc5c(-c6ccncc6)ccnc5[nH]4)c3c2)c1 [compound 380] | 11.9 |
| 12 | > 10000 | – | 100 | c1cc(-c2ccnc3[nH]c(-c4n[nH]c5ccc(-c6cncc(CNCC7CCCC7)c6)nc45)cc23)ccn1 [compound 396] | 67.2 |
| 5 | > 10000 | – | – | c1cc(-c2ccnc3[nH]c(-c4n[nH]c5ccc(-c6cncc(OCCN7CCCC7)c6)nc45)cc23)ccn1 [compound 404] | 39.6 |
| 3 | > 10000 | – | – | c1cc(-c2ccnc3[nH]c(-c4n[nH]c5ccc(-c6cncnc6)cc45)cc23)ccn1 [compound 405] | 17.3 |
| 7 | > 10000 | – | – | O=C(Cc1ccccc1)Nc1cncc(-c2ccc3[nH]nc(-c4nc5c(-c6ccncc6)ccnc5[nH]4)c3n2)c1 [compound 626] | – |
| 3 | > 10000 | – | – | COc1cccc(-c2cncc3[nH]c(-c4n[nH]c5ccc(-c6cn[nH]c6)nc45)nc23)c1 [compound 633] | – |
